As a reminder, the IC50 is the point on the concentration scale where inhibition reaches its midpoint.

The subject of assay [1] is ALCL cells. As to conditions: cited from earlier work.
Assay [2] relates to ALCL cells. To be noted: cited from earlier work. This is another data set of the same source.
For assay [3], the target named is T1, ALK (Homo sapiens, UniProt Q9UM73). Details: host or cells: ALCL cells; the other entry of the earlier key: NPM1 (P06748, Nucleophosmin). To be noted: cited from earlier work.
Target sequence in this assay (Q9UM73 with tags, fused parts or gaps): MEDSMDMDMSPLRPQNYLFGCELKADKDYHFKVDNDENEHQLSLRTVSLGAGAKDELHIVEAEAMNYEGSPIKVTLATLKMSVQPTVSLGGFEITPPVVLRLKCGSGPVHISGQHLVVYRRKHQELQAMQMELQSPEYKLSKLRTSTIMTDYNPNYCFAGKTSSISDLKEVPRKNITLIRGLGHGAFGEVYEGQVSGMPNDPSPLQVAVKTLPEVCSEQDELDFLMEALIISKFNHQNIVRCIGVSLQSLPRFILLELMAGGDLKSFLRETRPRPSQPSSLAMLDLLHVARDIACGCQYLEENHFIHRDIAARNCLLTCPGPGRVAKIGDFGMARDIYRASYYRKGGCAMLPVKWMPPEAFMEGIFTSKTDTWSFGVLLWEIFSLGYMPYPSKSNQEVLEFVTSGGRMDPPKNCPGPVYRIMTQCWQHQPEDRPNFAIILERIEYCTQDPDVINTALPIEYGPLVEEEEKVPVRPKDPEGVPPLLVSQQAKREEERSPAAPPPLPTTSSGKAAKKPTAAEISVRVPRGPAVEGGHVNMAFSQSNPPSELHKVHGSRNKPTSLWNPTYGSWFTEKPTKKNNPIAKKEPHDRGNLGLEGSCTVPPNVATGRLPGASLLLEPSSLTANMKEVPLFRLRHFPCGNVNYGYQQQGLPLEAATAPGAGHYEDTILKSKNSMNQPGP
Assay [4] has as its target T2, NIH-3T3 cells overexpressing human IR (Homo sapiens, UniProt P06213).
T2 construct: expressed in transfected cells; host or cells: NIH-3T3 (mouse fibroblasts)
As to the kind of experiment: IR cellular autophosphorylation (DELFIA). It counts as cell-based. As to conditions: 2 h compound, insulin 3 ug/ml for 15 minutes, IC50 category. An outline of the steps: (§1)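 Receptor autophosphorylation measured by DELFIA, capturing IGF-1R or IRβ and detecting with europium anti-pTyr, reported as percent of IGF-1- or insulin-stimulated signal. Compounds (30 uM to 1.5 nM) added 2 h before ligand, then 15 min stimulation (IGF-1 30 ng/ml or insulin 3 ug/ml).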

For the next assay, the system named is NCI-H929. As to the kind of experiment: Inhibition of cell proliferation (CellTiter-Glo or InCell analyzer), NCI-H929. It counts as cell-based. To be noted: Homo sapiens, 72 h / 3 days, values given as IC50 category. As for the experimental part:
Cell proliferation was measured by either CellTiter-Glo (measures cellular ATP level as a surrogate for total cell number) or by InCell analyzer (counts number of nuclei as a measure of cell number).
For CellTiter-Glo assay, exponentially growing cell lines of different tumor origins, cultured in appropriate media containing 10% fetal bovine serum at 37° C. in a 5% CO2 incubator, were plated at low density (less than 2000cells/well) in 96-well plates. Twenty four hours post-plating, cells were treated with different concentrations of test compounds ranging from 30 uM to 1.5 nM. Several wells were left untreated as a control. Seventy two hours post-treatment, cell numbers were determined using 50-100 ul per well of CellTiter-Glo (Promega #G7573). Plates were incubated at 37° C. for 30 minutes and the chemiluminescent signal was read on the Victor V or Envison 2100 reader.
For InCell Analyser assay, various cell lines of different tumor origins were grown to 70-80% confluency in appropriate culture media containing 10% fetal bovine serum at 37° C. in a 5% CO2 incubator. On day −1, cells were seeded at 2 densities in 384-well plates and incubated at 37° C. overnight. Stock compound plates were prepared in advance which contained dimethyl sulfoxide (DMSO) alone and a 9-point half-log decreasing dose range of the compound in DMSO. The compound plates were stored at −80° C. and each plate was only thawed once and used. On day 0, the main assay plates received compound or DMSO via a sonic delivery system (ECHO). The highest final concentration of compound of the dose range in the culture plates was 10 uM. These plates were cultured at 37° C. for 3 days. […] On day 3, the compound treated plates were stained and fixed to measure proliferation, apoptosis, and mitotic index using an InCelL1000 analyser. A nuclear stain was used to identify cells in the wells. By counting the number of nuclei, the proliferation index of compound treated groups were calculated as a percentage relative to the DMSO control, which was set to 100%. The IC50 values were calculated using model 205 in ExcelFit.
IC50 (nM) values for compounds of select examples were categorized by relative inhibition of cell proliferation.
On the technique in general: ATP-based viability assays read luminescence as a measure of living cells.

The subject of another assay is Colo205. In words: Inhibition of cell proliferation (CellTiter-Glo or InCell analyzer), Colo205. It counts as cell-based. To be noted: Homo sapiens, COLO 205, 72 h / 3 days, values given as IC50 category. An outline of the steps:
In one

Assay [5] addresses T1, ALK. In words: ALK enzyme assay (HTRF). As to conditions: 0.25 nM ALK, 15.0 μM ATP, values given as pIC50 category. It counts as biochemical. A digest of the protocol:
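Isolated ALK phosphorylates a biotinylated tyrosine peptide, 120 min at 20° C; anti-phosphotyrosine Eu-cryptate/streptavidin-XL665 HTRF read after 60 min with EDTA-containing detection mix.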
Target sequence in this assay (Q9UM73 19-1620): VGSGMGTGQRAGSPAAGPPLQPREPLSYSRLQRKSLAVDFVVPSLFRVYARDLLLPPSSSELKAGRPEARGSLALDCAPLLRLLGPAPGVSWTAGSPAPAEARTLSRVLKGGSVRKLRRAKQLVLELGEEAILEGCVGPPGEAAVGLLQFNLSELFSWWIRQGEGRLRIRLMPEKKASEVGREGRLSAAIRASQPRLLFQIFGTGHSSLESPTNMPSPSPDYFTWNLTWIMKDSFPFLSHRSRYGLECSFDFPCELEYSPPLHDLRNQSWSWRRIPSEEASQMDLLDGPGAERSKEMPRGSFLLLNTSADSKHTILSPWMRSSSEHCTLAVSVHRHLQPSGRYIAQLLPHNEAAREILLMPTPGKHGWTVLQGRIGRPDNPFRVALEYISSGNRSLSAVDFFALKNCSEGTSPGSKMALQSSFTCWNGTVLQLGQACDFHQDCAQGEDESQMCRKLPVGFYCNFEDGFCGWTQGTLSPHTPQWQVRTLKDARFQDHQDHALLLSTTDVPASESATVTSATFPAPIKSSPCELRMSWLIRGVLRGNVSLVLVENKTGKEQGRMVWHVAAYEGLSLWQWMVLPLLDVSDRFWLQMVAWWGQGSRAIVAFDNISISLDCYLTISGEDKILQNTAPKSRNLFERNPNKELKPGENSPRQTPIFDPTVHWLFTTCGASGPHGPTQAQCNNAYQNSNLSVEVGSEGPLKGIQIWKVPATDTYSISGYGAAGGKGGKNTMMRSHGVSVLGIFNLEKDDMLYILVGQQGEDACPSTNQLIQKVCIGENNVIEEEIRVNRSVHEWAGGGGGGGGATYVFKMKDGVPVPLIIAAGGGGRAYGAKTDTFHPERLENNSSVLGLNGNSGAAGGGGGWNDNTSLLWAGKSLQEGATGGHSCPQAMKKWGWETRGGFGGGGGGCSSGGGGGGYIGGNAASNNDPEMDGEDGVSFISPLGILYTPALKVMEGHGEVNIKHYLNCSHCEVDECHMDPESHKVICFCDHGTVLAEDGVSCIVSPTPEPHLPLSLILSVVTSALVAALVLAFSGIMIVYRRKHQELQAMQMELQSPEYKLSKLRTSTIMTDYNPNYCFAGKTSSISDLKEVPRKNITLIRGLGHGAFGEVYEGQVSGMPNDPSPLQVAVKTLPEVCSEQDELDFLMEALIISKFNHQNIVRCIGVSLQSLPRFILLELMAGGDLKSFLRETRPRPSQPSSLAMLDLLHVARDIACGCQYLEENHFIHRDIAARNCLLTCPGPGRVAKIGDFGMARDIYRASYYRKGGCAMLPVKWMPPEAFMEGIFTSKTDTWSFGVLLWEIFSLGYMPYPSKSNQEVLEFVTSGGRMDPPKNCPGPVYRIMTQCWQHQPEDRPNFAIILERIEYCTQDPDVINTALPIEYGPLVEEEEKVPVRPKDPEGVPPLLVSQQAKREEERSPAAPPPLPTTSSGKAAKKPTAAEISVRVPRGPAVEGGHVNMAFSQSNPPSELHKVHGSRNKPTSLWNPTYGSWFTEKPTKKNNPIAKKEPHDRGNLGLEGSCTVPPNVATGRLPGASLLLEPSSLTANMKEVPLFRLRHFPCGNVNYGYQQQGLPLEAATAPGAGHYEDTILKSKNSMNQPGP

Assay [6] has as its target T3, NIH-3T3 cells overexpressing human IGF-1R (Homo sapiens, UniProt P08069).
T3 construct: expressed in transfected cells; host or cells: NIH-3T3 (mouse fibroblasts)
In words: IGF-1R cellular autophosphorylation (DELFIA). It counts as cell-based. A digest of the protocol:
as §1

In another assay the target is T4, human IR (hIR) (Homo sapiens, UniProt P06213).
T4 construct: containing amino acid residues 979-1382 of human IR; made in house; host or cells: Sf9 cells (baculovirus), same process as hIGF1R
As to the kind of experiment: TR-FRET kinase assay of purified hIR. As to conditions: activated hIR 0.5 nM, 10 μM ATP, values given as pIC50 category. The class given is biochemical.

Where two headings read alike, the source gives them in different places. Where only a bound is given, the exact number is not on record here.

T4 sequence (P06213 979-1382): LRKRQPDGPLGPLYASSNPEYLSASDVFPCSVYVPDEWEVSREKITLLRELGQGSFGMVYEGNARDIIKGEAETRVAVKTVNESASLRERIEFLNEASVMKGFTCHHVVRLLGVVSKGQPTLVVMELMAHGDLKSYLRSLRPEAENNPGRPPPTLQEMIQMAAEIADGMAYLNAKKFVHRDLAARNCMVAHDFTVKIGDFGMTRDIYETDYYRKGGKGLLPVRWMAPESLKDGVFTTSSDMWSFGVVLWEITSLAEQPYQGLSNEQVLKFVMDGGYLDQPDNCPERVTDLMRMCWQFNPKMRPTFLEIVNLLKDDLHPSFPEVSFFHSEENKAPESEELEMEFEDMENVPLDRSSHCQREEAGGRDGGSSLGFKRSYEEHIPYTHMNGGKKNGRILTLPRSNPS
T3 sequence (P08069 31-1367): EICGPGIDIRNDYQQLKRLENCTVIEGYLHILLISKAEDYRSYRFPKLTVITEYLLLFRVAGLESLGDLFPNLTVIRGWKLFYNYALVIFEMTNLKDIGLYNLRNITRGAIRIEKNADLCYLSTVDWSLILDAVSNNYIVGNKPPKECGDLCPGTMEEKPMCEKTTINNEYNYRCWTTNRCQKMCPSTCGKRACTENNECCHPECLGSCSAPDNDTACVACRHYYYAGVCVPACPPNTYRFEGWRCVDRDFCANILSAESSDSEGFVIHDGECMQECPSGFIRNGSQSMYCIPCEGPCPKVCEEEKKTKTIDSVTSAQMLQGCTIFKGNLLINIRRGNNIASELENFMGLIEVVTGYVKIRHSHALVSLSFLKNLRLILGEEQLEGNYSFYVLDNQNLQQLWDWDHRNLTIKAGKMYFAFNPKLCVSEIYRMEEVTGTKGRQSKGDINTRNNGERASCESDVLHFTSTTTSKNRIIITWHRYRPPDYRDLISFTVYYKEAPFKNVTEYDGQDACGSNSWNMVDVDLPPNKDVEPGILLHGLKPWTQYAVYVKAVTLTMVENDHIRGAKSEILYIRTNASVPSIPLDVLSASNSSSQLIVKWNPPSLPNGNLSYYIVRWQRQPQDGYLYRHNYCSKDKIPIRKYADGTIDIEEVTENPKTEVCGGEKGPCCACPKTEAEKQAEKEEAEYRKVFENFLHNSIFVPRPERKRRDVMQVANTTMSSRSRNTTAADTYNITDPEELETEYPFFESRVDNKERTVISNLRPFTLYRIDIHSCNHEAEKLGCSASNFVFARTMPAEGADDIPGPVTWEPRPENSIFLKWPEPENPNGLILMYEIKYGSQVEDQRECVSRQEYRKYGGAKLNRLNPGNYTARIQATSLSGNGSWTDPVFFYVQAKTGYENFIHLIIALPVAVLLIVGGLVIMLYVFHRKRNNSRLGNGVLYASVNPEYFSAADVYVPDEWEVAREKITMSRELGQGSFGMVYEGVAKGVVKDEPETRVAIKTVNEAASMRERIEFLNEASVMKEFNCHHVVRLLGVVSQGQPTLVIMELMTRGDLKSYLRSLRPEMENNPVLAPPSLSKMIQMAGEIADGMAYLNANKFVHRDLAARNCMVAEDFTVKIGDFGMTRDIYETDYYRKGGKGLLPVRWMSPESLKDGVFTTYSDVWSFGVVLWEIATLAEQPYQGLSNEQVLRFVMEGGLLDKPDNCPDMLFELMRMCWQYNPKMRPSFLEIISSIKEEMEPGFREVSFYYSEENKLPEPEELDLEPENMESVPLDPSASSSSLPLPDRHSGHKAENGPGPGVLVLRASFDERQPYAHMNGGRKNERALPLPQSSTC

For the compound `C[C@@H](Oc1cc(-c2cnn(C3CCNCC3)c2)cnc1N)c1c(Cl)ccc(F)c1Cl` [PF2341066], the “inhibition of the growth of ALCL cells” value in the assay with ALCL cells [1] (experimental systems in vivo) and in the assay on ALCL cells [2] (experimental systems in vitro) was “inhibit the growth of ALCL cells” throughout.
Regarding “5-chloro-2,4-diaminophenylpyrimidine [NVP-TAE68]”, on ALK [3], the “consequence of the inhibition of ALK autophosphorylation in the cells” value was “cell cycle arrest and apoptosis”; the “inhibition of ALK autophosphorylation” value is “inhibited ALK autophosphorylation”. For the same compound, the “activity in tumor xenograft models” value in the assay with ALCL cells [1] (tumor xenograft models) is on record as “active”. Further, the “activity against ALCL cells” value in the assay with ALCL cells [2] (in vitro) is “active against ALCL cells”.
On to `COc1cc(N2CCN(C(C)C)CC2)ccc1Nc1nc(Nc2ccc(F)cc2C(N)=O)c2cc[nH]c2n1` [Example 60, 5-fluoro-2-[(2-{[4-[4-(1-methylethyl)-1-piperazinyl]-2-(methyloxy)phenyl]amino}-1H-pyrrolo[2,3-d]pyrimidin-4-yl)amino]benzamide], for which the IC50 in assay [4] is 100 to 500 nM; with NCI-H929, under 250 nM; in the assay with Colo205 it was under 250 nM; at ALK [5], 0.251 to 1 nM; in assay [6], under 100 nM; against human IR (hIR), 0.251 to 1 nM.
Regarding `CCCN1CCC=C(c2ccc(OC)c(Nc3nc(Nc4ccc(F)cc4C(N)=O)c4cc[nH]c4n3)c2)C1` [Example 57, 5-fluoro-2-[(2-{[2-(methyloxy)-5-(1-propyl-1,2,5,6-tetrahydro-3-pyridinyl)phenyl]amino}-1H-pyrrolo[2,3-d]pyrimidin-4-yl)amino]benzamide], the IC50 in assay [4] is under 100 nM; with NCI-H929, under 250 nM; in the assay with Colo205 it was under 250 nM; against ALK [5] it was 0.251 to 1 nM; in assay [6], under 100 nM; against human IR (hIR), 0.251 to 1 nM.
